Measured values reported in publication PMC13415800 (Pharmaceutics, 2026).
“Also recorded” adds a separate entry of the source.

Key:
Vero E6 cell line [1] = conditions: for CC50: MTT
Vero E6 cell line [2] = conditions: compound concentration producing minimal changes in cell morphology, estimated by microscopy
ZIKV (MR766, Uganda) = type: cell-based, Zika virus; conditions: Vero E6; ZIKV MOI 1; five days; highest concentration without cytotoxicity (MCC)
ZIKV [3] = assay: Entry assay (qRT-PCR); type: cell-based, Zika virus; conditions: Vero E6; MOI 1; infection 1 h 4 °C, then 50 µM 1 h 37 °C
Protocol: (§1) Vero E6 cells were seeded on 96 well plate 3.5 × 10^4 well and incubated (37 °C, 5% CO2) overnight. 1 h before the infection we put the cells at 4 °C. During the entry assay cells were infected for 1 h at 4 °C and MOI of 1, then washed twice with PBS. Afterward, they were treated with 50 µM of compound 7, lasting for 1 h (37 °C, 5% CO2). During the binding assay the cells were infected as before for 1 h at 4 °C and at the same time treated with 50 µM of compound 7. Following both of the treatments, the cells were washed once with PBS, then RNA was isolated from the cells. Viral RNA was quantified using qRT-PCR (see below). This assay was developed based on the methods established by Lu et al..
(§2) For viral RNA isolation, the Total RNA Miniprep Kit (New England Biolabs, Ipswich, USA) was used, following the manufacturer’s instruction. After RNA elution, samples were stored at −80 °C until use. For the determination of viral RNA quantity, we used the Luna® Universal Probe One-Step RT-qPCR Kit (New England Biolabs, Ipswich, MA, USA). The primers used were ZIKV_NS1_F: […], ZIKV_NS1_R: […], and the probe was FAM-5′-CCC GCA GAT-3′ /ZEN/ 5′-TGG CAG CAG-3′-BHQ1. […]
(§3) To gain a more precise understanding of the mechanism of action of compound 7, binding and entry assays were performed. […] After incubation, cells were washed with PBS prior to RNA extraction, and viral RNA levels were quantified by qRT-PCR.

ZIKV [4] = assay: Binding assay (qRT-PCR); type: cell-based, Zika virus; conditions: Vero E6; MOI 1; 50 µM; 1 h at 4 °C
Protocol: as §1, §2, §3

ZIKV [5] = assay: Liposome-based capsid protection assay (virus–liposome fusion); type: biochemical, Zika virus; conditions: trypsin-containing liposomes; pH 5.3; 10, 50 μM
Vero E6 cells = assay: Phospholipidosis assay (LipidTOX Deep Red); type: cell-based, African green monkey (Cercopithecus aethiops); conditions: 48 h
Protocol: Vero E6 cells were seeded in 96-well plates and treated with compound 7 at the indicated concentrations for 48 h. Propranolol (30 µM) was used as a positive control and DMSO as vehicle control. Phospholipid accumulation was detected using LipidTOX™ Deep Red phospholipidosis stain (Thermo Fisher Scientific, Waltham, MA, USA, H34158) according to the manufacturer’s instructions. Nuclei were counterstained with Hoechst 33342. Representative images were acquired by confocal microscopy.

ZIKV [6] = assay: Virion inactivation assay (cell-free pre-incubation, plaque assay); type: cell-based, Zika virus
ZIKV [7] = assay: Virion destabilization assay (RNase A, qRT-PCR); type: biochemical, Zika virus; conditions: 50 µM, 1 h, 37 °C, then RNase A
ZIKV [8] = assay: Time of drug addition assay (qRT-PCR); type: cell-based, Zika virus; conditions: Vero E6, MOI 1, 50 µM, 24 h pi
Protocol: Vero E6 cells were seeded on 96-well plates at 3.5 × 10^4 well and incubated (37 °C, 5% CO2) overnight. The cells were infected for 1 h with MOI of 1. Cells were treated with 50 µM of compound 7. Cells were treated at three different times: 1 h before infection, concurrently with the infection, and one hour post-infection. After the infection, the supernatant was discarded and the cells were incubated for 24 h with the media, then RNA was isolated from the supernatant and quantified using qRT-PCR (see below).
as §2
We divided the samples into five groups based on the timing of treatment: no-treatment (ZIKV), pre-treatment for 1 h (pre), co-treatment (co), post-treatment for 1 h (post), and full treatment (full) (Figure 3A). Twenty-four hours post-infection (pi), we isolated viral RNA from the supernatant and quantified it using qRT-PCR. […]

[9] = tested on: SARS-CoV-2 (B.1.5 (G) isolate, Hungarian); type: cell-based, severe acute respiratory syndrome coronavirus 2; conditions: Vero E6, 3 days, MTT
CHIKV (Guatemala) = assay: CPE inhibition assay, CHIKV on Vero E6; type: cell-based, chikungunya virus; conditions: MOI 0.1, 3 days, MTT

CC(=O)N[C@H]1[C@H](O[C@@H]2c3ccc(c(Cl)c3)Oc3cc4cc(c3O)Oc3ccc(cc3Cl)C[C@H]3NC(=O)[C@H](n5cc(COCCOCCCC(F)(F)C(F)(F)C(F)(F)C(F)(F)C(F)(F)C(F)(F)C(F)(F)C(F)(F)F)nn5)c5ccc(O)c(c5)Oc5cc(O)cc(c5)[C@H](NC3=O)C(=O)N[C@H]4C(=O)N[C@H]3C(=O)N[C@@H]2C(=O)N[C@H](C(=O)O)c2cc(O)cc(O)c2-c2cc3ccc2O)O[C@H](CO)[C@@H](O)[C@@H]1O [Compound 1]
CC50 (Vero E6 cell line [1]): 149 µM | MCC (Vero E6 cell line [2]): >50 µM

CC(=O)N[C@H]1[C@H](O[C@@H]2c3ccc(c(Cl)c3)Oc3cc4cc(c3O)Oc3ccc(cc3Cl)C[C@H]3NC(=O)[C@H](n5cc(COCCOCCCC(F)(F)C(F)(F)C(F)(F)C(F)(F)C(F)(F)C(F)(F)F)nn5)c5ccc(O)c(c5)Oc5cc(O)cc(c5)[C@H](NC3=O)C(=O)N[C@H]4C(=O)N[C@H]3C(=O)N[C@@H]2C(=O)N[C@H](C(=O)O)c2cc(O)cc(O)c2-c2cc3ccc2O)O[C@H](CO)[C@@H](O)[C@@H]1O [Compound 2]
cytopathic effects (microscopy) (ZIKV (MR766, Uganda)): we did not observed any CPE; also recorded: No cytopathic effects were observed | CC50 (Vero E6 cell line [1]): 195 µM | MCC (Vero E6 cell line [2]): >40 µM

CC(=O)N[C@H]1[C@H](O[C@@H]2c3ccc(c(Cl)c3)Oc3cc4cc(c3O)Oc3ccc(cc3Cl)C[C@H]3NC(=O)[C@H](n5cc(COCCOCCCC(F)(F)C(F)(F)C(F)(F)C(F)(F)F)nn5)c5ccc(O)c(c5)Oc5cc(O)cc(c5)[C@H](NC3=O)C(=O)N[C@H]4C(=O)N[C@H]3C(=O)N[C@@H]2C(=O)N[C@H](C(=O)O)c2cc(O)cc(O)c2-c2cc3ccc2O)O[C@H](CO)[C@@H](O)[C@@H]1O [Compound 3]
cytopathic effects (microscopy) (ZIKV (MR766, Uganda)): we did not observed any CPE; also recorded: No cytopathic effects were observed | CC50 (Vero E6 cell line [1]): 198 µM | MCC (Vero E6 cell line [2]): >50 µM

CC(=O)N[C@H]1[C@H](O[C@@H]2c3ccc(c(Cl)c3)Oc3cc4cc(c3O)Oc3ccc(cc3Cl)C[C@H]3NC(=O)[C@H](NC(=O)CCC(F)(F)C(F)(F)C(F)(F)C(F)(F)C(F)(F)C(F)(F)C(F)(F)C(F)(F)F)c5ccc(O)c(c5)Oc5cc(O)cc(c5)[C@H](NC3=O)C(=O)N[C@H]4C(=O)N[C@H]3C(=O)N[C@@H]2C(=O)N[C@H](C(=O)O)c2cc(O)cc(O)c2-c2cc3ccc2O)O[C@H](CO)[C@@H](O)[C@@H]1O [Compound 6]
cytopathic effects (microscopy) (ZIKV (MR766, Uganda)): we did not observed any CPE; also recorded: No cytopathic effects were observed | CC50 (Vero E6 cell line [1]): 175 µM | MCC (Vero E6 cell line [2]): >60 µM

CC(=O)NC1C(OC2c3ccc(c(Cl)c3)Oc3cc4cc(c3O)Oc3ccc(cc3Cl)CC3NC(=O)C(NC(=O)CCC(F)(F)C(F)(F)C(F)(F)C(F)(F)C(F)(F)C(F)(F)F)c5ccc(O)c(c5)Oc5cc(O)cc(c5)C(NC3=O)C(=O)NC4C(=O)NC3C(=O)NC2C(=O)NC(C(=O)O)c2cc(O)cc(O)c2-c2cc3ccc2O)OC(CO)C(O)C1O (stereo not drawn) [Compound 7]
viral RNA level, entry assay, treated vs control (ZIKV [3]): No significant differences | viral RNA level, binding assay, treated vs control (ZIKV [4]): No significant differences | capsid protein signal under low-pH fusion conditions (Western blot) (ZIKV [5]): preserved the capsid signal | concentration from which phospholipidosis is detectable (Vero E6 cells): ≥ 2500 nM | phospholipidosis response (Vero E6 cells; positive control propranolol 30 µM): weak phospholipidosis response | cytopathic effects (microscopy) (ZIKV (MR766, Uganda)): No cytopathic effects were observed | reduction of viral titer vs untreated control (ZIKV [6]): approximately one order of magnitude | viral RNA copy number vs negative control (virion integrity) (ZIKV [7]): No significant reduction | viral RNA level vs no-treatment, pre-treatment (before infection) (ZIKV [8]; 1 h before infection): No significant inhibition | viral RNA level vs no-treatment, post-treatment (after viral entry) (ZIKV [8]; 1 h post-infection): No significant inhibition | CC50 (Vero E6 cell line [1]): 203 µM | MCC (Vero E6 cell line [2]): >60 µM

COC(=O)C1NC(=O)C2NC(=O)C(NC(=O)C3NC(=O)C4NC(=O)C(NC(=O)C(NC(=O)CCC(F)(F)C(F)(F)C(F)(F)C(F)(F)C(F)(F)C(F)(F)C(F)(F)C(F)(F)F)c5ccc(O)c(c5)Oc5cc4cc(O)c5C)C(O)c4ccc(cc4)Oc4cc3cc(c4O)Oc3ccc(cc3)C2O)c2ccc(O)c(c2)-c2c(O)cc(O)cc21 (stereo not drawn) [Compound 8]
cytotoxic effects (in words) (Vero E6 cell line [1]): slightly cytotoxic | CC50 (Vero E6 cell line [1]): 62.6 µM | MCC (Vero E6 cell line [2]): >20 µM

Teicoplanin [reference compound]
EC50 [9]: 33.9 µM | EC50 (CHIKV (Guatemala)): 86.2 µM | CC50 (Vero E6 cell line [1]): 280 µM | MCC (Vero E6 cell line [2]): >60 µM
